According to patent US20070254037A1 (priority 2004, published 2007):

Experiments:
[1] = test system: right axillar lymphnode (recurrence of melanoma); experiment: Example 11: slow release injection into melanoma axillar lymphnode; type: in vivo, human
meningioma = experiment: Example 16: stereotactic injection into meningioma; type: in vivo, human
[2] = test system: lymphnode in the left cervical area (tonsillar carcinoma); experiment: Example 13: rods implanted in cervical lymphnode; type: in vivo, human
Protocol: A patient presents with a 10 cm diameter lymphnode located in the left cervical area. […] The patient refuses any kind of prolonged therapy. They accept a tumour implantation of a slow release drug. Fourteen 7 cm long rods of lactide-capronolactone containing rotenone, are implanted. The total dose of rotenone delivered over 2 weeks by the rods is 60 mg. […] The patient accepts radiation therapy.

[3] = test system: metastasis in the 10th dorsal vertebra from a breast tumor; experiment: Example 14: intratumoural injection into vertebral metastasis; type: in vivo, human; details: on the next day; 20 mg as SLN in 1 ml poly(orthoesther) paste
Protocol: A person presents with metastases originating from a breast tumor operated and irradiated 3 years before. […] The patient is young and one wants to keep radiotherapy for further recurrences. They benefit from an intratumoural injection of 1 ml of polymeric paste (poly(orthoesther)), containing 20 mg of Antimycin A formulated as SLN. The paste is deposited in the center of the metastasis under fluoroscopy control. The pain drops on the next day by ⅔. […] This allows to visualize the elution rate and the melting process of the polymer, and to better follow and understand the kinetics of the treatment.
At 3 weeks the polymer has nearly totally disappeared, and the patient is sent for the injection of a cement (methylmethacrylate) inside the vertebra, under fluoroscopy. The pain disappears totally and the patient is followed up locally, ready to be treated when new metastases appear.

[4] = test system: metastatic prostate cancer; experiment: Phase I clinical trial of Rhodamine 123 intra-venous infusions; type: in vivo, human; details: for a 70 kg patient
Protocol: The Huntington Medical Research Institutes are addressing this issue in metastatic prostate cancer (Lawrence W. Jones, M. D. Huntington Memorial Hospital). Recently this institute published the results of a clinical trial where 33 patients with metastatic prostate cancer were treated with Rhodamine 123 intra-venous infusions.
Because inhibitors of oxidative phorphorylation are extremely toxic to a subject in the doses needed for efficacy via the systemic route, such inhibitors have been largely overlooked for effective treatment of conditions such as cancer. […] It is also known that the maximal tolerated dose of Rhodamine 123 delivered intra-venously in man is 95 mg/m^2. For a 70 kg patient, the maximum dose of systemically delivered rhodamine is about 150 mg. […] There was an accumulation of rhodamine in the prostate of the patients, but it was not sufficient to provoke a significant response.

tumour = experiment: Rhodamine delivered directly in the tumour (slow release); type: in vivo; details: 40 or 50 mg directly in the tumour
Source text: By locally delivering oxidative phosphorylation inhibitors into proliferating cells in a slow release formulation, the delivery period is prolonged i.e. the inhibitors are not cleared by the liver, and the dose received by the tumour is effectively higher than using systemic delivery. Furthemore, the lethal dose can be greatly exceeded. […] Such a dose, delivered systemically, would require 100 g of rhodamine, more than 1000 times the lethal dose. Thus, a composition comprising an oxidative phorphosrylation inhibitor in a slow release formulation increases the effective dose to the tumour and permits greater than lethal dosing.

[5] = test system: metastatic prostate cancer; details: cited from earlier work
[6] = rodents; cited from earlier work
right breast tumor = experiment: Example 12: rods implanted in breast tumor; type: in vivo, human

O=C(O)CF [fluoroacetate]
remaining induration size ([1]; 6 months later, after additional 6 sessions of radiotherapy at 5 Gy): 1 cm | lymphnode size ([1]; initially 5 cm, 1 month after 4 mg fluoroacetate slow release): 3 cm | lesion finding on MRI (meningioma; MRI two months after 4 mg in poly(ortho)ester): partial necrosis | tumour necrosis on histological examination (meningioma; after surgical intervention): 80% | lesion size (meningioma; initially 3 cm, MRI two months after 4 mg in poly(ortho)ester): 2.5 cm

C=C(C)[C@H]1Cc2c(ccc3c2O[C@@H]2COc4cc(OC)c(OC)cc4[C@@H]2C3=O)O1 [rotenone]
mass size ([2]; initially 10 cm, 6 weeks after rods delivering 60 mg over 2 weeks): 5.5 cm | lymphnode outcome ([2]; new implantation with 30 mg plus radiation dose of 50 Gy): totally disappears

Antimycin A
drop of pain [3]: ⅔

rhodamine
maximum dose of systemically delivered rhodamine [4]: about 150 mg | tumour outcome (tumour): tumour death | effect on prostate tumours ([5]; systemic, at the maximum non-lethal dose): no useful effect

rhodamine 123
LD10 (the dose which kills 10% of animals) [6]: 20 mg/kg | tumour response ([5]; 33 patients with metastatic prostate cancer, intra-venous infusions): no significant tumour response | PSA change ([5]; 33 patients with metastatic prostate cancer, intra-venous infusions, in some cases): slight PSA reduction | maximal tolerated dose ([5]; delivered intra-venously in man): 95 mg/m^2

sodium arsenate
tumor diameter (right breast tumor; after second session, 3 rods, total dose 30 mg): 3 cm | tumor diameter (right breast tumor; initially 6 cm, 2 months after four rods with 10 mg each): 4 cm
